Source: the supplement of paper PMC13380429

Key:
A549-ACE2 [1] = test: phospholipidosis EC50; higher = less potent phospholipidosis inducer
[2] = tested on: A549-ACE2 infected with SARS-CoV-2; test: morphology score (similarity to uninfected cells); higher = more like uninfected cells; conditions: 24 h
HepG2 [3] = test: drug sensitivity score (DSS) for viability; higher = more toxic; extreme values may be limits of the assay; conditions: 72 h
Caco-2 [4] = test: as above; conditions: 72 h
U2OS [5] = test: as above; conditions: 72 h
Vero E6 [6] = test: as above; conditions: 72 h
Calu-3 [7] = test: as above; conditions: 72 h
[8] = tested on: A549-ACE2 infected with SARS-CoV-2; test: SARS-CoV-2 infection rate relative to DMSO; higher = more infection; conditions: 24 h
A549-ACE2 [9] = test: drug-induced phospholipidosis relative to tamoxifen; higher = more phospholipidosis
HepG2 [10] = test: cell viability relative to DMSO; higher = less toxic; conditions: 72 h
Caco-2 [11] = test: as above; conditions: 72 h
U2OS [12] = test: as above; conditions: 72 h
Vero E6 [13] = test: as above; conditions: 72 h
Calu-3 [14] = test: as above; conditions: 72 h
[15] = tested on: A549-ACE2 infected with SARS-CoV-2; test: cell count relative to DMSO; higher = less toxic; conditions: 24 h
HepG2 [16] = test: relative viability EC50 (midpoint between 100% and the lowest measured viability); higher = less toxic; conditions: 72 h
Caco-2 [17] = test: as above; conditions: 72 h
U2OS [18] = test: as above; conditions: 72 h
Vero E6 [19] = test: as above; conditions: 72 h
Calu-3 [20] = test: as above; conditions: 72 h

COc1cccc(CCc2ccccc2OCC[C@@H]2C[C@@H](O)CN2C)c1
Conditions | SARS-CoV-2 infection rate [%] | cell count [%] | cell viability [%] | morphology score | phospholipidosis EC50 [µM]
A549-ACE2 [1], 24 h | – | – | – | – | 4.19
A549-ACE2 [1], 48 h | – | – | – | – | 6.86
A549-ACE2 [1], 72 h | – | – | – | – | 13.6
Caco-2 [11], 1 nM | – | – | 96.1 | – | –
Caco-2 [11], 10 nM | – | – | 97.4 | – | –
Caco-2 [11], 100 nM | – | – | 104 | – | –
Caco-2 [11], 1000 nM | – | – | 85.9 | – | –
Caco-2 [11], 10000 nM | – | – | 90 | – | –
Calu-3 [14], 1 nM | – | – | 101 | – | –
Calu-3 [14], 10 nM | – | – | 92.9 | – | –
Calu-3 [14], 100 nM | – | – | 97.2 | – | –
Calu-3 [14], 1000 nM | – | – | 91.6 | – | –
Calu-3 [14], 10000 nM | – | – | 80.2 | – | –
HepG2 [10], 1 nM | – | – | 86.5 | – | –
HepG2 [10], 10 nM | – | – | 91.3 | – | –
HepG2 [10], 100 nM | – | – | 85.7 | – | –
HepG2 [10], 1000 nM | – | – | 96.8 | – | –
HepG2 [10], 10000 nM | – | – | 74.2 | – | –
U2OS [12], 1 nM | – | – | 101 | – | –
U2OS [12], 10 nM | – | – | 98.4 | – | –
U2OS [12], 100 nM | – | – | 100 | – | –
U2OS [12], 1000 nM | – | – | 98.3 | – | –
U2OS [12], 10000 nM | – | – | 92.9 | – | –
Vero E6 [13], 1 nM | – | – | 105 | – | –
Vero E6 [13], 10 nM | – | – | 102 | – | –
Vero E6 [13], 100 nM | – | – | 97.5 | – | –
Vero E6 [13], 1000 nM | – | – | 98.8 | – | –
Vero E6 [13], 10000 nM | – | – | 84.9 | – | –
[2], 0.3 µM | – | – | – | -0.09 | –
[2], 3 µM | – | – | – | 0.68 | –
[2], 10 µM | – | – | – | 0.87 | –
[2], 30 µM | – | – | – | 0.46 | –
[8], 0.3 µM | 105 | – | – | – | –
[8], 3 µM | 62 | – | – | – | –
[8], 10 µM | 22 | – | – | – | –
[8], 30 µM | 20 | – | – | – | –
[15], 0.3 µM | – | 97 | – | – | –
[15], 3 µM | – | 111 | – | – | –
[15], 10 µM | – | 119 | – | – | –
[15], 30 µM | – | 99 | – | – | –

Conditions | drug sensitivity score | relative viability EC50 [µM]
Caco-2 [4] | 1 | –
Caco-2 [17] | – | > 10
Calu-3 [7] | 0.9 | –
Calu-3 [20] | – | > 10
HepG2 [3] | 0 | –
HepG2 [16] | – | > 10
U2OS [5] | 0 | –
U2OS [18] | – | > 10
Vero E6 [6] | 0.3 | –
Vero E6 [19] | – | > 10

drug-induced phospholipidosis [%], A549-ACE2 [9]
Conditions | 0.3 µM | 0.833333 µM | 3.33333 µM | 6.66667 µM | 10 µM | 30 µM
24 h | 0.95 | 6.59 | 62.7 | 89.3 | 95.1 | 128
48 h | 5.49 | 6.45 | 45.9 | 81.8 | 98.6 | 139
72 h | 4.74 | 4.21 | 42.1 | 79.5 | 98.4 | 166

CCOc1ccc(-c2nc(-c3cccc4c3CCC4NCCO)no2)cc1OCC (stereo not given) [CYM-5442]
Conditions | SARS-CoV-2 infection rate [%] | cell count [%] | cell viability [%] | morphology score | phospholipidosis EC50 [µM]
A549-ACE2 [1], 24 h | – | – | – | – | 2.26
A549-ACE2 [1], 48 h | – | – | – | – | 3.87
A549-ACE2 [1], 72 h | – | – | – | – | 4.72
Caco-2 [11], 1 nM | – | – | 91 | – | –
Caco-2 [11], 10 nM | – | – | 96.9 | – | –
Caco-2 [11], 100 nM | – | – | 102 | – | –
Caco-2 [11], 1000 nM | – | – | 99.2 | – | –
Caco-2 [11], 10000 nM | – | – | 71.7 | – | –
Calu-3 [14], 1 nM | – | – | 94.6 | – | –
Calu-3 [14], 10 nM | – | – | 95.2 | – | –
Calu-3 [14], 100 nM | – | – | 91.2 | – | –
Calu-3 [14], 1000 nM | – | – | 104 | – | –
Calu-3 [14], 10000 nM | – | – | 92.8 | – | –
HepG2 [10], 1 nM | – | – | 97.5 | – | –
HepG2 [10], 10 nM | – | – | 101 | – | –
HepG2 [10], 100 nM | – | – | 90.5 | – | –
HepG2 [10], 1000 nM | – | – | 97.2 | – | –
HepG2 [10], 10000 nM | – | – | 78.8 | – | –
U2OS [12], 1 nM | – | – | 99 | – | –
U2OS [12], 10 nM | – | – | 95.7 | – | –
U2OS [12], 100 nM | – | – | 103 | – | –
U2OS [12], 1000 nM | – | – | 97 | – | –
U2OS [12], 10000 nM | – | – | 90.5 | – | –
Vero E6 [13], 1 nM | – | – | 90.7 | – | –
Vero E6 [13], 10 nM | – | – | 102 | – | –
Vero E6 [13], 100 nM | – | – | 84.5 | – | –
Vero E6 [13], 1000 nM | – | – | 94.7 | – | –
Vero E6 [13], 10000 nM | – | – | 99.1 | – | –
[2], 0.3 µM | – | – | – | 0.19 | –
[2], 3 µM | – | – | – | 0.72 | –
[2], 10 µM | – | – | – | 0.84 | –
[2], 30 µM | – | – | – | 0.63 | –
[8], 0.3 µM | 96 | – | – | – | –
[8], 3 µM | 55 | – | – | – | –
[8], 10 µM | 13 | – | – | – | –
[8], 30 µM | 19 | – | – | – | –
[15], 0.3 µM | – | 100 | – | – | –
[15], 3 µM | – | 118 | – | – | –
[15], 10 µM | – | 113 | – | – | –
[15], 30 µM | – | 104 | – | – | –

Conditions | drug sensitivity score | relative viability EC50 [µM]
Caco-2 [4] | 1.3 | –
Calu-3 [7] | 0 | –
Calu-3 [20] | – | > 10
HepG2 [3] | 1.1 | –
HepG2 [16] | – | > 10
U2OS [5] | 0 | –
U2OS [18] | – | > 10
Vero E6 [6] | 0 | –
Vero E6 [19] | – | > 10

drug-induced phospholipidosis [%], A549-ACE2 [9]
Conditions | 0.3 µM | 0.833333 µM | 3.33333 µM | 6.66667 µM | 10 µM | 30 µM
24 h | 3.28 | 18.4 | 62.3 | 81.5 | 100 | 87.8
48 h | 3.02 | 11.2 | 44.6 | 72.9 | 96 | 93.9
72 h | 0.284 | 11.6 | 36.7 | 67.4 | 106 | 99.3
